Data published in the NIST ThermoML archive (doi:10.1016/j.tca.2014.08.003).

Settings: Crystal, Calculated from knudsen effusion weight loss

[Cu][Br] [copper(1+) bromide]
Settings | vapor or sublimation pressure [kPa]
528.8 K | 1.17e-05
530.1 K | 9.37e-06
532 K | 1.25e-05
551.4 K | 2.45e-05
551.6 K | 3.17e-05
553.5 K | 4.55e-05
570.8 K | 9.35e-05
572.6 K | 0.000104
573.5 K | 0.000113
592.1 K | 0.000235
593.8 K | 0.000273
594.6 K | 0.000301
611.9 K | 0.000512
614.9 K | 0.000595
618.1 K | 0.000705
633 K | 0.00115
634.1 K | 0.00121
635 K | 0.00109
655.2 K | 0.00229
656.8 K | 0.00229
658.2 K | 0.00269

[Br-].[Br-].[Zn+2] [zinc bromide]
Settings | vapor or sublimation pressure [kPa]
452.5 K | 2.26e-05
452.8 K | 2.04e-05
453.1 K | 2.07e-05
453.6 K | 1.28e-05
469.4 K | 4.74e-05
472.1 K | 9.63e-05
472.7 K | 8.63e-05
473.8 K | 7.35e-05
492.8 K | 0.000262
493.1 K | 0.000181
493.2 K | 0.000217
493.9 K | 0.000252
511.2 K | 0.000691
511.3 K | 0.000577
513 K | 0.000684
513.1 K | 0.000719
528.9 K | 0.00158
530.2 K | 0.00192
532.9 K | 0.00201
533.9 K | 0.0019
551.6 K | 0.0051
552 K | 0.00505
552.7 K | 0.00453
552.8 K | 0.00521
568 K | 0.00978
570.3 K | 0.0106
572.3 K | 0.00997
574 K | 0.0126
